Reference: patent US10292390B2, “Inhibition and dispersion of bacterial biofilms with 2-aminobenzimidazole derivatives” (WISCONSIN ALUMNI RESEARCH FOUNDATION, priority 2011, dated 2019)

Tests used:
Type in all cases: cell-based, Pseudomonas aeruginosa
[1] = test system: preformed P. aeruginosa biofilms; assay: biofilm dispersion assay (preformed 24 h-old biofilms, crystal violet); conditions: for dispersion of preformed biofilm / DC50: 24 h-old biofilm, additional 24 h with compound; for effect on final OD600 measurement during dispersion: 48 h; for DC50: Pseudomonas aeruginosa, read-out: half maximal dispersion DC50
Method: Compounds capable of not only inhibiting biofilm growth, but also dispersing preformed biofilms, are of particular value for a range of clinical and other applications. The ability of compounds 7 and 21 to disperse 24 h-old P. aeruginosa biofilms was tested using the crystal violet staining assay (FIG. 1B). Biofilms were allowed to develop in the absence of compound for 24 h, after which non-biofilm material was removed by washing with buffer and fresh media with compound was added. Biofilm was quantified after an additional 24 h, and the amount of dispersed biofilm was determined via comparison of the amount of biofilm at 48 h in the presence of compound versus the amount of biofilm at 24 h in the absence of compound. 2-ABIs 7 and 21 were capable of strongly dispersing P. aeruginosa biofilms (˜80%), with half maximal dispersion DC50 values of 84 μM and 92 μM, respectively (FIG. 1B).
Compounds 7 and 21 were evaluated for their ability to disperse preformed P. aeruginosa biofilms. For biofilm dispersion assessment, the static CV biofilm assay described above was modified in order to introduce compound to preformed biofilm for an additional incubation period. Solvent evaporation delivery of compound was not possible in this format; thus, stock solutions of compounds 7 and 21 were prepared in 95:5 M9+:LB media. Stocks of 7 and 21 were prepared at 3.16 mM and 1 mM, respectively (21 was insoluble at 3.16 mM). These stocks were diluted in series to obtain final concentrations as follows: 10^x μM where x=3.5 (7 only), 3, 2.5, 2, 1.5 (21 only), 1, 0, −1, or −2. Biofilms were allowed to form in microtiter plates in the absence of compound for 24 h, after which non-biofilm material was removed by dumping and washing as normal with sterile PBS. After the second washing, 200 μL of fresh 95:5 M9+:LB media containing compound at various concentrations was added to the wells, and the plates were incubated at 37° C. for an additional 24 h. One set of wells was left empty in order to assess the amount of biofilm present after the first 24 h incubation, while another set of wells was given media without compound to assess the amount of biofilm at 48 h. […] After the second 24 h incubation, non-biofilm material was removed by dumping and washing 4× with PBS (the additional washing at 48 h was found necessary to completely remove detached Int biofilm that had settled over the SA biofilm; data not shown). Biofilm was fixed and quantified with CV as described above. The amount of dispersed biofilm was determined via comparison of the amount of biofilm at 48 h in the presence of compound versus the amount of biofilm in the “no compound” positive control at 24 h. A higher degree of error was often observed with this assay format due to the additional incubation and washing steps; thus, all compounds were tested in replicates of 6 wells.
DC50 values for biofilm dispersion by 7 and 21 were calculated using a sigmoidal curve fit (three parameters) and are reported with a 95% Cl.

[2] = test system: LasR activity, P. aeruginosa PAO1/plasI-LVAgfp; assay: Las QS reporter assay (GFP fluorescence); conditions: for LasR activity: at 1-10× IC50 values for biofilm inhibition; for inhibition of Las-QS system: fluorescence dose curves, 12 and 24 h
Method: (§1) As introduced above, the role of QS in biofilm formation is well documented and therefore the abilities of 7 and 21 to inhibit QS in P. aeruginosa were evaluated. For this purpose, two wild-type P. aeruginosa QS reporter strains were prepared that contain the plasmids plasI-LVAgfp and prhII-LVAgfp. (see: The Examples) These strains report the activity of two intracellular QS receptors in P. aeruginosa (LasR and RhlR) by the production of green fluorescent protein (gfp), allowing for LasR and RhlR activities, and thus QS levels, to be quantified by fluorescence. […] Studies of related 2-ABI derivatives have shown that this class of molecules is bacterial cell permeable, allowing us to surmise that 7 and 21 could act on the Las and Rhl systems intracellularly. […] The precise targets of 7 and 21 that result in QS disruption are not yet known.
(§2) To evaluate the activity of compounds 7 and 21 on QS in P. aeruginosa, we prepared two P. aeruginosa QS reporter strains: PAO1/plasI-LVAgfp and PAO1/prhII-LVAgfp. These strains contain the reporter plasmids plasI-LVAgfp and prhII-LVAgfp, respectively, which contain the laslI or rhII promoter sequences fused to LVAgfp. Binding of activated LasR or RhlR to these promoters induces GFP production, which can be quantified by fluorescence and is proportional to the level of LasR or RhlR activation. LVAgfp is an unstable form of GFP with an estimated half-life of 40-60 min, which allows for a more real-time analysis of gene expression (wild-type GFP has a half-life of greater than 1 day). Further, this specific GFP is the variant GFPmut3b that has a shifted excitation maximum near 501 nm (wild-type GFP has an excitation maximum near 395 nm); emission maximum is similar to wild-type GFP at 511 nm (wild-type GFP has emission maximum near 508 nm). Utilizing this GFP variant is key to detection over native fluorescent pigments that are produced in P. aeruginosa and excite near 400 nm and emit near 500 nm. Preparation and analysis of the PAO1/plasI-LVAgfp and PAO1/prhII-LVAgfp reporters are outlined below.
(§3) Compounds 7 and 21 were evaluated for their ability to modulate the Las and Rhl systems using the P. aeruginosa PAO1/plasI-LVAgfp and PAO1/prhII-LVAgfp reporters. We used the same exact setup as the static biofilm assay in 96-well microtiter plates for P. aeruginosa with the exception that freezer stocks were streaked on LB/agar with 300 μg/mL Carb. Microtiter plates were prepared similar to dose-response analysis such that final well concentrations upon inoculum addition ranged from 10^x μM where x=3.5, 3, 2.5, 2, 1.5, 1, 0, −1, or −2. Measurements of FL500/540 and OD600 were made at 12 and 24 h, and after 24 h the samples were evaluated for biofilm formation using the CV procedure. […]

[3] = test system: RhlR activity, P. aeruginosa PAO1/prhII-LVAgfp; assay: Rhl QS reporter assay (GFP fluorescence); conditions: for RhlR activity: at 1-10× IC50 values for biofilm inhibition; for inhibition of Rhl-QS system: fluorescence dose curves, 12 and 24 h
Method: as §1, §2, §3

| SMILES | dispersion of preformed biofilm [1] [%] | effect on final OD600 measurement during dispersion [1] | DC50 [1] [µM] | LasR activity [2] | inhibition of Las-QS system [2] | RhlR activity [3] | inhibition of Rhl-QS system [3] |
| --- | --- | --- | --- | --- | --- | --- | --- |
| Nc1nc2ccccc2[nH]1 [Compound 7, 2-aminobenzimidazole] | ~80 | without significantly affecting the final OD600 measurement | 84 | significant reduction | able to inhibit | significant reduction | able to inhibit |
| Cc1cc2nc(N)[nH]c2cc1C [Compound 21, 5,6-Dimethyl-2-aminobenzimidazole] | ~80 | without significantly affecting the final OD600 measurement | 92 | significant reduction | able to inhibit | significant reduction | able to inhibit |
